# Calls of active or inactive are those of the source.
# Experiments:
# [1] = molecular target: Peroxisome proliferator-activated receptor gamma/Nuclear receptor corepressor 2 (Homo sapiens, UniProt P37231+Q9Y618); type: functional
# [2] = molecular target: Peroxisome proliferator-activated receptor gamma/Nuclear receptor coactivator 2 (Homo sapiens, UniProt P37231); test: (§1) TR-FRET dose response biochemical High Throughput Screening assay for agonists of the steroid receptor coactivator 2 (SRC-2) recruitment by the peroxisome proliferator-activated receptor gamma (PPAR gamma): non-selective agonists. [Related pubchem assays: 1297, 1032 ]; type: functional
# Chain of Peroxisome proliferator-activated receptor gamma/Nuclear receptor coactivator 2 (P37231 whole entry): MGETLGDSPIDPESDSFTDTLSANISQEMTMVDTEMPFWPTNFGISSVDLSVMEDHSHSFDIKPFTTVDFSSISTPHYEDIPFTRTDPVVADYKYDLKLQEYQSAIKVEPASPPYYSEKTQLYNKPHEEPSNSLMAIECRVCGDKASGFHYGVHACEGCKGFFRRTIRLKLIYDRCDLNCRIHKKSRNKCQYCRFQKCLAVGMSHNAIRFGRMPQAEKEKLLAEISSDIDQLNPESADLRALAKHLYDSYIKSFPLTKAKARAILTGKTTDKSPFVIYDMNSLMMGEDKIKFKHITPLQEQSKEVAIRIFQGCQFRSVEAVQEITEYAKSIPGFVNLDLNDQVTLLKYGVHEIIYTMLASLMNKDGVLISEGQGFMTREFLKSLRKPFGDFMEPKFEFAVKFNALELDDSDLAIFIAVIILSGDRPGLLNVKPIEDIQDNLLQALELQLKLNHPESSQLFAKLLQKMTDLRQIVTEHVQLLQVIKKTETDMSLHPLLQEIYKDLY
# Chain of Peroxisome proliferator-activated receptor gamma/Nuclear receptor coactivator 2 (Q15596 whole entry, further chain): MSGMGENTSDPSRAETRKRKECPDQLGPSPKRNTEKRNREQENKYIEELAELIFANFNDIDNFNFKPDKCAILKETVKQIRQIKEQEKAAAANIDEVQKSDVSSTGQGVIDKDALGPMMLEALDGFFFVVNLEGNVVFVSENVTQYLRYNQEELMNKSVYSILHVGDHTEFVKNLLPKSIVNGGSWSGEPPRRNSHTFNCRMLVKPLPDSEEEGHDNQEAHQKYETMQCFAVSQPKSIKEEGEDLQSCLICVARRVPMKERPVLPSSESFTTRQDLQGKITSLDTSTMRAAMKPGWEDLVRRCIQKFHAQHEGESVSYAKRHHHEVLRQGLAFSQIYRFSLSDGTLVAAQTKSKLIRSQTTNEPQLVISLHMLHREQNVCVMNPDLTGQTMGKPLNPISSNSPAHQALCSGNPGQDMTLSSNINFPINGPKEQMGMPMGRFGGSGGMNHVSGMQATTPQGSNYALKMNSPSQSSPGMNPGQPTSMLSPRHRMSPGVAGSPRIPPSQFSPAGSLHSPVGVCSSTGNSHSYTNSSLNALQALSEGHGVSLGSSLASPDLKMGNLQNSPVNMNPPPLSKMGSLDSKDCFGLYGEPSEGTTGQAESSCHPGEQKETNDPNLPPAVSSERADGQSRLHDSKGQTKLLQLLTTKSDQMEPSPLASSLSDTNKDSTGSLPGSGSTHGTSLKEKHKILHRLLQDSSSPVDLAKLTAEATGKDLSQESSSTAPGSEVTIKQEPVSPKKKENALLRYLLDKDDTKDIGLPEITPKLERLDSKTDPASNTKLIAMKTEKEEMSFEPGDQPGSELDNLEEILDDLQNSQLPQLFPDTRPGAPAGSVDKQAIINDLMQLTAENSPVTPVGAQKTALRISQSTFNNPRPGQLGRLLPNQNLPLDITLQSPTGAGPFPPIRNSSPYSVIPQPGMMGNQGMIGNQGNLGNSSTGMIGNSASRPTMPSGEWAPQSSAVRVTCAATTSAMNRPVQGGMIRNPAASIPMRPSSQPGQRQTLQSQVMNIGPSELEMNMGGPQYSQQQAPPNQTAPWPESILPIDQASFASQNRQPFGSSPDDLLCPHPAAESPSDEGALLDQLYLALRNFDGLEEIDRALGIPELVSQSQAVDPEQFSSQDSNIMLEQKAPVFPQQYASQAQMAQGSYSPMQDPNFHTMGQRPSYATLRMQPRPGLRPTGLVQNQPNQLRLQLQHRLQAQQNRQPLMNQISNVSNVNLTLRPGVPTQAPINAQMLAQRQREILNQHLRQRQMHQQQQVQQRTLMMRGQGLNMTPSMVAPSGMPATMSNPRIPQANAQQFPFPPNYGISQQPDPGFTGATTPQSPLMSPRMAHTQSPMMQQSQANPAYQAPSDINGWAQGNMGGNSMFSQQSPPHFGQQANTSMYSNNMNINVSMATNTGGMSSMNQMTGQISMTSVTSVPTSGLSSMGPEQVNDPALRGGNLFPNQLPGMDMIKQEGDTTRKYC
# [3] = molecular target: Photoreceptor-specific nuclear receptor (Homo sapiens, UniProt Q9Y5X4); type: functional;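 also: potency for compounds that break the NR2E3 corepressor complex and count as activators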
# [4] = molecular target: Peroxisome proliferator-activated receptor gamma/Nuclear receptor coactivator 3 (Homo sapiens, UniProt P37231); test: as §1, with “3 (SRC-3)” for “2 (SRC-2)”, “1301 (Confirmation screen.), 1048 (Primary screen.)]” for “1297, 1032 ]”; type: functional
# [5] = molecular target: Peroxisome proliferator-activated receptor gamma/Nuclear receptor coactivator 1 (Homo sapiens, UniProt P37231); test: as §1, with “1 (SRC-1)” for “2 (SRC-2)”, “assays (depositor defined):AID1300, AID1808, AID504735, AID631]” for “assays: 1297, 1032 ]”; type: protein assay
# Chain of Peroxisome proliferator-activated receptor gamma/Nuclear receptor coactivator 1 (P37231 whole entry): as the sequence (P37231 whole entry) above
# Chain of Peroxisome proliferator-activated receptor gamma/Nuclear receptor coactivator 1 (Q15788 whole entry, further chain): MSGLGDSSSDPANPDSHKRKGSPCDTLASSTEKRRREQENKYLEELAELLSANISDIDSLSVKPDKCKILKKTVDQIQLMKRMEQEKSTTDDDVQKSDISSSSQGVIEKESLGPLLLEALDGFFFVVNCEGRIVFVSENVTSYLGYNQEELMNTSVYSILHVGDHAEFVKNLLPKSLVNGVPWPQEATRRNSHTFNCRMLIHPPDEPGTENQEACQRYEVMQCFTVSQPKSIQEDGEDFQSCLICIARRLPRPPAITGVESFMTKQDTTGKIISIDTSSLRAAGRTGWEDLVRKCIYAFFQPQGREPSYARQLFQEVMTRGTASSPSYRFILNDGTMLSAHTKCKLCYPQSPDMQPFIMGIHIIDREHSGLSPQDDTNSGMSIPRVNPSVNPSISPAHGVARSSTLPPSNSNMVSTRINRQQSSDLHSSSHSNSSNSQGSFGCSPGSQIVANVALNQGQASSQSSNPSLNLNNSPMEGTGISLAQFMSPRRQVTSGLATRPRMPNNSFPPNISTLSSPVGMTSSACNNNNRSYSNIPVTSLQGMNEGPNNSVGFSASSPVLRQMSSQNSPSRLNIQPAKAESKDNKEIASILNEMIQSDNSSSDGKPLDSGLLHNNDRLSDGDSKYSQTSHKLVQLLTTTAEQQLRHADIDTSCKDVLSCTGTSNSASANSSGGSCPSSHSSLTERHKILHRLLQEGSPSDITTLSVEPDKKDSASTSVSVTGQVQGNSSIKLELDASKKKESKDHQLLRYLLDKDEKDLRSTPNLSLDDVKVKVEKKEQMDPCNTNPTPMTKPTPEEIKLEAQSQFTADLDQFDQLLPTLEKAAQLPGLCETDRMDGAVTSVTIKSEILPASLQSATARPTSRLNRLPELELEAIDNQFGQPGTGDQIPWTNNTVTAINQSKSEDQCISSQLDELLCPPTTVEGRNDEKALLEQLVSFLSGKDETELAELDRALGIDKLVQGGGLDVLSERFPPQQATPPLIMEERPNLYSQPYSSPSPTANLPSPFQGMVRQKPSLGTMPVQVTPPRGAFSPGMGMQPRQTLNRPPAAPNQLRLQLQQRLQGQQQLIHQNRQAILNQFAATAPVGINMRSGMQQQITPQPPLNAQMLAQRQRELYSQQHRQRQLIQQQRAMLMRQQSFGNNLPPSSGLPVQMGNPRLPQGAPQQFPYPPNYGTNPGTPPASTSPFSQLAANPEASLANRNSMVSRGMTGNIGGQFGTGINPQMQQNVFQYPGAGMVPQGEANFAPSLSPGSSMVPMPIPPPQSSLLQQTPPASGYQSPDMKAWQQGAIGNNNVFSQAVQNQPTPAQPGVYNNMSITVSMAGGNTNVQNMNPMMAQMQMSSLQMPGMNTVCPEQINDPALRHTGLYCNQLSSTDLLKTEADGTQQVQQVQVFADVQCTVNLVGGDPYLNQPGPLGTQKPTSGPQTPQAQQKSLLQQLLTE
# [6] = molecular target: Eukaryotic translation initiation factor 4E (Mus musculus, UniProt P63073); test: eIF4E–eIF4G protein interaction inhibitors, dose response, biochemical, TR-FRET (AID 855); type: functional;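 also: potency for disrupting eIF4E binding to eIF4GI seen as loss of FRET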
# [7] = molecular target: T1, Tyrosine-protein phosphatase non-receptor type 22 (Homo sapiens, UniProt Q9Y2R2); type: functional
# T1 sequence (Q9Y2R2 whole entry): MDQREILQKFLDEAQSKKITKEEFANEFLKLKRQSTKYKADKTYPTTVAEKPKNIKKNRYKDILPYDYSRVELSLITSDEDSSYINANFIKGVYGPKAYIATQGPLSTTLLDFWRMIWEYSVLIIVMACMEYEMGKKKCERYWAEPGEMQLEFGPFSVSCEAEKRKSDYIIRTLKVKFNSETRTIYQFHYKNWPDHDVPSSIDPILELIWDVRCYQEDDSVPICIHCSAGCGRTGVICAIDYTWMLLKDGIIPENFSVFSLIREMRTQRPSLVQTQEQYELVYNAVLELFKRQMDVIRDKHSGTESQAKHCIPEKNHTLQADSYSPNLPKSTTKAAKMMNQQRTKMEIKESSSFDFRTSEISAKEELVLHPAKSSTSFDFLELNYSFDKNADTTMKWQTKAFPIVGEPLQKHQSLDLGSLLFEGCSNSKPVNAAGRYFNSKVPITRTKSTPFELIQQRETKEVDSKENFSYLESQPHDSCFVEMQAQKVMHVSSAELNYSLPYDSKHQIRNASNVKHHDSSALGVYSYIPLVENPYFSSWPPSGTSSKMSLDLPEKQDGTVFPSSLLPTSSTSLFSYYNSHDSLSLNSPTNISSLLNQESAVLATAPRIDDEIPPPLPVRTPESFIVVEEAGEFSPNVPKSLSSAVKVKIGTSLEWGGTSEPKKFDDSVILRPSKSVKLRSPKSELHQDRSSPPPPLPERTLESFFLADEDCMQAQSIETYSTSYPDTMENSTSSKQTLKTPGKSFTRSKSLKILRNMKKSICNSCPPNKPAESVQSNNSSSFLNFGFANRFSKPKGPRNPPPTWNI
# [8] = molecular target: T2, Tyrosine-protein phosphatase non-receptor type 7 (Homo sapiens, UniProt P35236); type: functional
# T2 sequence (P35236 whole entry): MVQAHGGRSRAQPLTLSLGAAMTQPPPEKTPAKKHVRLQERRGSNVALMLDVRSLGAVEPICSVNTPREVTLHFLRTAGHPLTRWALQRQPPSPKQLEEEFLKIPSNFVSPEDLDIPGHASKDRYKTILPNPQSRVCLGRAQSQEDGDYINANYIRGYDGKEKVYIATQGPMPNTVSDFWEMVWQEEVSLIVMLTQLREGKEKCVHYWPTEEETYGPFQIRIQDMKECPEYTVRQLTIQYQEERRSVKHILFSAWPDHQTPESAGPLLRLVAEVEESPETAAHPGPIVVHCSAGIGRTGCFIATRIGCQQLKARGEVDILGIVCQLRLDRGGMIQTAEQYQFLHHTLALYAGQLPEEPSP
# [9] = molecular target: T1, Tyrosine-protein phosphatase non-receptor type 22; type: functional; remark: listed apart in the source
# [10] = molecular target: T3, Alkaline phosphatase, tissue-nonspecific isozyme (Homo sapiens, UniProt P05186)
# T3 sequence (P05186 whole entry): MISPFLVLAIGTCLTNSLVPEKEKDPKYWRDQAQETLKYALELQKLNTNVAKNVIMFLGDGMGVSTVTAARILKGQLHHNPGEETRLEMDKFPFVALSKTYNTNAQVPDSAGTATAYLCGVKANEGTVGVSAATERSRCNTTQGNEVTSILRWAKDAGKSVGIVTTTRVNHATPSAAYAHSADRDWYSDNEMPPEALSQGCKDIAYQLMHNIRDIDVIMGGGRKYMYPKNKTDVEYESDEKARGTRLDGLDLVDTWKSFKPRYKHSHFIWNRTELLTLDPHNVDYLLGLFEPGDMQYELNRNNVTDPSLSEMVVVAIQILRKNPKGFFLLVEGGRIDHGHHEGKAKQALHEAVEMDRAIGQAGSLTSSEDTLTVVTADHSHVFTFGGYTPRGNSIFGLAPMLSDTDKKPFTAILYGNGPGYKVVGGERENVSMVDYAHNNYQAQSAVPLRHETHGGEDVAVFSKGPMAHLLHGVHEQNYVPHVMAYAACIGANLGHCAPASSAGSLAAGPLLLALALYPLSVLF
# [11] = molecular target: T3, Alkaline phosphatase, tissue-nonspecific isozyme; test: TNAP enzyme inhibition by screening hits, dose response, selectivity assay for mouse IAP inhibitor project, biochemical, human TNAP, uHTS hits (AID 488906); type: functional
# [12] = molecular target: Intestinal-type alkaline phosphatase (Homo sapiens, UniProt P09923); test: inhibition of human intestinal alkaline phosphatase – biochemical, dose response (AID 488876); type: functional
# Chain of Intestinal-type alkaline phosphatase (Homo sapiens, UniProt P09923) (P09923 whole entry): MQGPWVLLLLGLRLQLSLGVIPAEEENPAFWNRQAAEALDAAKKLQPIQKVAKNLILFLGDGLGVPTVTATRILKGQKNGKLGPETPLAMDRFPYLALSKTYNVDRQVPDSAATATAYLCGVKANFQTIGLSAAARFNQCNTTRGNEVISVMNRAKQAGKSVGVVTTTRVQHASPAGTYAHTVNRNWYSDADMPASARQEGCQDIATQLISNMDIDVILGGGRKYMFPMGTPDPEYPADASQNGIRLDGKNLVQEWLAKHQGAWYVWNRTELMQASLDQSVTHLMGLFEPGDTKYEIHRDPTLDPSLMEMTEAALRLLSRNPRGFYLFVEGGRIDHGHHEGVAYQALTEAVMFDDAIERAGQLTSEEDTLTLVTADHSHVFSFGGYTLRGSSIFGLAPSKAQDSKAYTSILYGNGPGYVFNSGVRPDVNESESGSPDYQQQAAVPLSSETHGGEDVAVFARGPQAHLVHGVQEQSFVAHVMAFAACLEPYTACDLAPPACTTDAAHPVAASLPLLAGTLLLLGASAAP
# Streptokinase A = molecular target: T4, Streptokinase A (Streptococcus pyogenes serotype M1, UniProt P10520); test: S. pyogenes streptokinase expression inhibitors, potency, dose response, plasminogen activation absorbance, OD405 (AID 1914); type: functional, Streptococcus pyogenes M1 GAS;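 also: secreted streptokinase activity via plasminogen activation per viability signal from cell pellet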
# T4 sequence (P10520 whole entry): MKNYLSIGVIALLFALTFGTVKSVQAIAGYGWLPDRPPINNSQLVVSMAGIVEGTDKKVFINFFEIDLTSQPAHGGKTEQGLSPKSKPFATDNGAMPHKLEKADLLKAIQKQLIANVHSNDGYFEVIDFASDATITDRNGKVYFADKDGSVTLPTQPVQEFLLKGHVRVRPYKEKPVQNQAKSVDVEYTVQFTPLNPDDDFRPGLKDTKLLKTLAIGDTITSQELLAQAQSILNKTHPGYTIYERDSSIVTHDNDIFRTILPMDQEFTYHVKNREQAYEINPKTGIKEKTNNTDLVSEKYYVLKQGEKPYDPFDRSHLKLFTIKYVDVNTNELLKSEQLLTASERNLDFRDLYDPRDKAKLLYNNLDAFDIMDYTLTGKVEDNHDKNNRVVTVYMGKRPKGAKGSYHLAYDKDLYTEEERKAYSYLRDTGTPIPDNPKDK
# [13] = molecular target: Intestinal-type alkaline phosphatase (Mus musculus, UniProt P24822); test: PubChem AID 488785; type: functional
# SUMO-activating enzyme = SUMO-activating enzyme (Homo sapiens, UniProt Q9UBT2); test: SUMOylation inhibitor hit validation, confirmation, SUMOylation inhibitor project, biochemical, AlphaScreen (AID 2018); type: functional
# Beta-galactosidase = Beta-galactosidase (Escherichia coli, UniProt Q8VNN2); type: functional
# Nonstructural protein 1 = Nonstructural protein 1 (Influenza A virus, UniProt Q194T2); type: functional, Influenza A virus (A/California/07/2009(H1N1))
# [14] = molecular target: T5, Kappa-type opioid receptor (Homo sapiens, UniProt P41145); type: functional
# [15] = HeLa cell cytotoxicity, dose response, cytotoxicity control for MgcRacGAP inhibitor project (AID 624300); type: functional
# [16] = molecular target: Matrix metalloproteinase-14 (Homo sapiens, UniProt P50281); test: Dose Response confirmation of uHTS hits for a small molecule inhibitors of MT1-MMP activation in a fluorescence assay set 1.; type: functional
# [17] = molecular target: T5, Kappa-type opioid receptor; type: functional; remark: listed apart in the source
# [18] = molecular target: Mitogen-activated protein kinase 10 (Homo sapiens, UniProt P53779); test: Dose response biochemical screening assay for inhibitors of c-Jun N-Terminal Kinase 3 (JNK3). [Related pubchem assays: 746 ]
# Phosphomannomutase 2 = Phosphomannomutase 2 (Homo sapiens, UniProt O15305); test: Counter screen SAR assay for PMM2 inhibitors via a fluorescence intensity assay. [Related pubchem assays (depositor defined):AID1545, AID1574]
# [19] = molecular target: T6, Mannose-6-phosphate isomerase (Homo sapiens, UniProt P34949); test: PMI enzyme inhibitors, confirmation, biochemical, fluorescence intensity (AID 1535)
# T6 sequence (P34949 whole entry): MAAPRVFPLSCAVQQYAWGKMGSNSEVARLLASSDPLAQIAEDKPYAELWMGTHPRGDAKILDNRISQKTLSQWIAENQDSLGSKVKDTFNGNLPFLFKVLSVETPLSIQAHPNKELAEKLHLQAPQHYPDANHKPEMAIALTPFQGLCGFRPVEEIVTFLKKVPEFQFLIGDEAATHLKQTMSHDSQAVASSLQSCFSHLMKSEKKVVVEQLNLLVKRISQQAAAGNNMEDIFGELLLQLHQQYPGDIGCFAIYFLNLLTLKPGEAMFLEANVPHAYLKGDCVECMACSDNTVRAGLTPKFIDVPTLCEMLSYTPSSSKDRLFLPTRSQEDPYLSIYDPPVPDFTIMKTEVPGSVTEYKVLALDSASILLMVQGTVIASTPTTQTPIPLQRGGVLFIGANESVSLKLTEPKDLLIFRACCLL
# Cytochrome P450 2D6 = Cytochrome P450 2D6 (Homo sapiens, UniProt P10635);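 also: CYP2D6 member of a cytochrome P450 panel assay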
# Chain of Cytochrome P450 2D6 (P10635 whole entry): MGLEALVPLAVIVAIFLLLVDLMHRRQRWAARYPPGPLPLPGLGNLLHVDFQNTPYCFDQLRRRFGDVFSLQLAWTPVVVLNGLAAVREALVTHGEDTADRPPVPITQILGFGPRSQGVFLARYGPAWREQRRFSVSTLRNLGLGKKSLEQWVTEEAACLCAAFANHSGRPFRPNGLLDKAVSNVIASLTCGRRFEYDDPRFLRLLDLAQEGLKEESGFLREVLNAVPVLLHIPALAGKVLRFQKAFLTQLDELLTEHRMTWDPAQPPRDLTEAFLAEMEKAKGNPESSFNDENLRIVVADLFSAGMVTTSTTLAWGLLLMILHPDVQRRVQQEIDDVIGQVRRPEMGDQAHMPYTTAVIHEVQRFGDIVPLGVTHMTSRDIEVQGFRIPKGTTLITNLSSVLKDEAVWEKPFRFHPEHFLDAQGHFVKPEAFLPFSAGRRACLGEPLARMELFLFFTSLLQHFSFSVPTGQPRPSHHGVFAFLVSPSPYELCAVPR
# Cytochrome P450 1A2 = molecular target: T7, Cytochrome P450 1A2 (Homo sapiens, UniProt P05177);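 also: PubChem cytochrome P450 panel assay, CYP1A2 panel member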
# T7 sequence (P05177 whole entry): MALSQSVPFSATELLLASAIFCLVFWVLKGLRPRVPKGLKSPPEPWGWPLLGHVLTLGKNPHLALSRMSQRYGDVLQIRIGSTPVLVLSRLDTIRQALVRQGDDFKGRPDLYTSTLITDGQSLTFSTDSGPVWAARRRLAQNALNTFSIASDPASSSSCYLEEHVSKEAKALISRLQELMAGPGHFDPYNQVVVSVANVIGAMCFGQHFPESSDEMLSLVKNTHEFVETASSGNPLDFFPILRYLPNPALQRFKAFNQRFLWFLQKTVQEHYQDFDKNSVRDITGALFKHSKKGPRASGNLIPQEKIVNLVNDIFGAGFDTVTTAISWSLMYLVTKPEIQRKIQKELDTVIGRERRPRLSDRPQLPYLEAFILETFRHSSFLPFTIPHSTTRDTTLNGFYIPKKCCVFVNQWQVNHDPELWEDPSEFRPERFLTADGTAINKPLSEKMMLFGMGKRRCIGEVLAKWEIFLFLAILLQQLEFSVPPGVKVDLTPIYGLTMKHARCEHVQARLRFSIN
# INS1 = test: beta cell apoptosis inhibitors, cytokine rescue, dose response, luminescence, retest (AID 449756); type: functional, cell-based; conditions: Rattus norvegicus;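 also: cell death triggered by IL-1 beta plus TNF-alpha plus IFN-gamma mixture; protective hits raise ATP signal compared with cytokine alone wells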
# [20] = molecular target: T6, Mannose-6-phosphate isomerase; test: human PMI inhibitors, high substrate, primary screen, biochemical, fluorescence intensity, high mannose 6-phosphate (AID 1220)
# [21] = molecular target: Induced myeloid leukemia cell differentiation protein Mcl-1 (Homo sapiens, UniProt Q07820); type: functional
structure (smiles),measurement,setting,value
O=c1oc2cc(O)c(Cl)cc2c2ccccc12,IC50,[1],1.39 µM (active)
same,EC50,[2],3.81 µM (active)
same,IC50,[3],> 39.8 µM (not active)
same,EC50,[4],> 79.4 µM (not active)
same,EC50,[5],> 79.4 µM (inactive)
O=C(CCN1C(=O)C2C3C=CC(C3)C2C1=O)Nc1ccccn1 (stereo not given),IC50,[6],> 64 µM (inactive)
CC(=O)NS(=O)(=O)c1ccc(NC(=O)C2C3C=CC(C3)C2C(=O)O)cc1 (stereo not given),IC50,[7],> 79.4 µM (inactive)
same,IC50,[8],> 79.4 µM (inactive)
same,IC50,[9],> 79.4 µM (inactive)
COc1ccc(CNC(=O)c2cc(-c3ccccc3O)[nH]n2)cc1,IC50,[7],> 79.4 µM (inactive)
same,IC50,[8],> 79.4 µM (inactive)
same,EC50,[10],> 100 µM (not active)
same,IC50,[9],> 79.4 µM (inactive)
FC(F)Sc1ccc(NC(=S)NC(c2ccccc2)c2ccccc2)cc1,IC50,[11],41.1 µM (active)
same,IC50,[12],> 100 µM (inactive)
same,EC50,Streptokinase A,> 150 µM (not active)
same,IC50,[13],0.998 µM (active)
O=C(Nc1cccc2nsnc12)c1ccc(-c2ccc(Br)cc2)o1,IC50,SUMO-activating enzyme,9.92 µM (active)
CC1=NN(c2ccccc2)C(=O)/C1=C/C=C/c1ccc(N(C)C)cc1,EC50,Beta-galactosidase,7.93 µM (active)
same,IC50,Nonstructural protein 1,3.14 µM (active)
same,IC50,[14],> 32 µM
same,CC50,[15],95.1 µM (active)
same,IC50,[16],> 80 µM (inactive)
same,IC50,[17],8.28 µM (active)
CCOc1ccc(C(=O)C2=C(O)C(=O)N(c3cc(C)on3)C2c2ccccc2OC)cc1 (stereo not given),IC50,[18],> 93.1 µM (not active)
same,EC50,[2],> 26.5 µM (not active)
same,EC50,[4],> 79.4 µM (not active)
same,EC50,[5],> 79.4 µM (inactive)
CCc1nnc(/N=c2\ssnc2Cl)s1,IC50,Phosphomannomutase 2,> 100 µM (inactive)
same,IC50,[19],13.1 µM (active)
COc1cccc(CNC(=O)CCNS(=O)(=O)c2ccc3[nH]c(=O)oc3c2)c1,IC50,[11],63.2 µM (active)
same,IC50,[12],> 100 µM (inactive)
same,IC50,[13],13.9 µM (active)
Cc1ccc(N2C(=O)c3[nH]nc(C)c3C2c2ccccn2)cc1 (stereo not given),AC50,Cytochrome P450 2D6,inconclusive
O=C(O)[C@@H]1[C@@H](C(=O)O)[C@]23C[C@@]2(C(=O)O)[C@]2(C(=O)O)CCC3=C3CCCC312,AC50,Cytochrome P450 1A2,2.51 µM (inconclusive)
same,AC50,Cytochrome P450 2D6,inconclusive
CCN1c2ccccc2N(C)C1(C)c1ccccc1 (stereo not given),IC50,[6],49.4 µM (inactive)
same,AC50,INS1,2.14 µM (active)
same,IC50,[20],13.7 µM (active)
same,IC50,[21],9.19 µM (active)

# From ChEMBL document CHEMBL1201862, “PubChem BioAssay data set” (2004)
